Results: publication PMC5910032 (ACS synthetic biology, 2018)

Assays:
Type in all cases: binding
[1] = tested on: FITC-E2 scFv VH W118G; assay: SPR inhibition in solution assay
[2] = tested on: FITC-E2 scFv (wild-type); assay: fluorescein fluorescence quenching, titration of purified scFv
[3] = tested on: FITC-E2 scFv VH W118G; assay: dose-dependent rescue of fluorescein quenching

| SMILES | IC50 [1] [nM] | EC50 [2] [nM] | EC50 [3] [µM] |
| --- | --- | --- | --- |
| O=C1OC2(c3ccc(O)cc3Oc3cc(O)ccc32)c2ccccc21 [fluorescein] | 296 | 23 to 27 |  |
| c1ccc2[nH]ccc2c1 [indole] |  |  | 220 |
